EC50 data for 13 compounds are collected here from patent publication US11560370B1, “5-membered heteroaryl carboxamide compounds for treatment of HBV” (Assembly Biosciences, Inc., priority 2018, dated 2023).

For this assay, the system named is HBV. As to the kind of experiment: Viral production from HepAD38 cells, viral load by qPCR of HBV core sequence. It is filed as cell-based. Conditions: 5 days, supernatant HBV DNA by qPCR, read-out: Viral Load EC50 Activity range. The method, boiled down: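 HepAD38 cells in tetracycline-free medium with 2% FBS, 50,000 cells/well, treated 5 days at 37° C. with compound from 10 μM top concentration (1% DMSO final). Supernatant HBV DNA measured by TaqMan qPCR of core sequence against standards, versus DMSO wells; viability by CellTiter-Glo; EC50/CC50 by four-parameter fit.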
On the technique in general: Quantitative PCR measures a nucleic acid by following its amplification.

[1] abbreviates: Hepatitis B virus, HePAD38, 120 h.

The EC50 is the concentration that produces a half-maximal response.

Where two headings read alike, the source gives them in different places.

With `Cn1nc(C2CC3CC(O)(CSCC(F)(F)F)CC3C2)c(C(=O)Nc2ccc(F)c(Cl)c2)c1N` (stereo not shown) [AIA-258-1, 5-Amino-N-(3-chloro-4-fluorophenyl)-3-(5-hydroxy-5-(((2,2,2-trifluoroethyl)thio)methyl)octahydropentalen-2-yl)-1-methyl-1H-pyrazole-4-carboxamide], the EC50 under setting [1] is under 100 nM.

`Cn1nc(C2CC3CC(O)(C(=O)NC4CC4)CC3C2)c(C(=O)Nc2ccc(F)c(Cl)c2)c1N` (stereo not shown) [AIA-274-1, 5-Amino-N-(3-chloro-4-fluorophenyl)-3-(5-(cyclopropylcarbamoyl)-5-hydroxyoctahydropentalen-2-yl)-1-methyl-1H-pyrazole-4-carboxamide]: the EC50 under setting [1] was under 100 nM.

As to `Cn1nc(C2CCC(c3ccccc3)C2)c(C(=O)Nc2ccc(F)c(Cl)c2)c1N` (single isomer, unassigned) [AIA-202A, 5-Amino-N-(3-chloro-4-fluorophenyl)-1-methyl-3-(3-phenylcyclopentyl)-1H-pyrazole-4-carboxamide], the EC50 was under 100 nM.

On to `Cn1nc(C2CCC(c3ccccc3)C2)c(C(=O)Nc2ccc(F)c(Cl)c2)c1N` (single isomer, unassigned) [AIA-202D, 5-Amino-N-(3-chloro-4-fluorophenyl)-1-methyl-3-(3-phenylcyclopentyl)-1H-pyrazole-4-carboxamide], for which the EC50 is under 100 nM.

`COc1ccc([C@H]2CC[C@H](c3nn(C)c(N)c3C(=O)Nc3ccc(F)c(Cl)c3)C2)cc1` [AIA-003-B, 5-amino-N-(3-chloro-4-fluorophenyl)-3-((1S,3S)-3-(4-methoxyphenyl)cyclopentyl)-1-methyl-1H-pyrazole-4-carboxamide]: the EC50 under setting [1] is under 100 nM.

Regarding `COc1cc(C(=O)NCCN)ccc1C1CCC(c2nn(C)c(N)c2C(=O)Nc2ccc(F)c(Cl)c2)C1` (stereo not shown) [AIA-388, 5-Amino-3-(3-(4-((2-aminoethyl)carbamoyl)-2-methoxyphenyl)cyclopentyl)-N-(3-chloro-4-fluorophenyl)-1-methyl-1H-pyrazole-4-carboxamide], under setting [1], the EC50 lay in the range of 100 to 500 nM.

On to `Cn1nc(C2CC3CC(OCC(F)(F)F)CC3C2)c(C(=O)Nc2ccc(F)c(Cl)c2)c1N` (stereo not shown) [AIA-101, 5-Amino-N-(3-chloro-4-fluorophenyl)-1-methyl-3-(5-(2,2,2-trifluoroethoxy)octahydropentalen-2-yl)-1H-pyrazole-4-carboxamide], for which, under setting [1], the concentration for a half-maximal effect (EC50) was under 100 nM.

As for `CCSC1CC2CC(c3nn(C)c(N)c3C(=O)Nc3ccc(F)c(Cl)c3)CC2C1` (stereo not shown) [AIA-029, 5-Amino-N-(3-chloro-4-fluorophenyl)-3-(5-(ethylthio)octahydropentalen-2-yl)-1-methyl-1H-pyrazole-4-carboxamide], the EC50 under setting [1] is under 100 nM.

For the compound `Cn1nc(C2CC3CC(O)(CSCCN4CCOCC4)CC3C2)c(C(=O)Nc2ccc(F)c(Cl)c2)c1N` (stereo not shown) [AIA-284], the EC50 was under 100 nM.

Turning to `Cn1cc(C(=O)Nc2ccc(F)c(Cl)c2)c(C2CC3CC(O)(CS(C)(=O)=O)CC3C2)n1` (stereo not shown) [AIA-397], the concentration for a half-maximal effect (EC50) was in the range of 500 to 10000 nM.

Take `COc1cc(-c2ncc[nH]2)ccc1C1CCC(c2nn(C)c(N)c2C(=O)Nc2ccc(F)c(Cl)c2)C1` (single isomer, unassigned) [AIA-352-2, 3-(3-(4-(1H-Imidazol-2-yl)-2-methoxyphenyl)cyclopentyl)-5-amino-N-(3-chloro-4-fluorophenyl)-1-methyl-1H-pyrazole-4-carboxamide]: the EC50 is under 100 nM.

Regarding `Cn1cc(-c2ccc([C@H]3CC[C@@H](c4nn(C)c(N)c4C(=O)Nc4ccc(F)c(Cl)c4)C3)cc2)cn1` [AIA-050-A, 5-Amino-N-(3-chloro-4-fluorophenyl)-1-methyl-3-((1R,3S)-3-(4-(1-methyl-1H-pyrazol-4-yl)phenyl)cyclopentyl)-1H-pyrazole-4-carboxamide], the EC50 under setting [1] is under 100 nM.

For `Cn1cc(-c2ccc([C@H]3CC[C@H](c4nn(C)c(N)c4C(=O)Nc4ccc(F)c(Cl)c4)C3)cc2)cn1` [AIA-050-B, 5-amino-N-(3-chloro-4-fluorophenyl)-1-methyl-3-((1S,3S)-3-(4-(1-methyl-1H-pyrazol-4-yl)phenyl)cyclopentyl)-1H-pyrazole-4-carboxamide], the EC50 under setting [1] was under 100 nM.
